Results as given in PMC12136037, “Type II kinase inhibitors that target Parkinson’s disease–associated LRRK2” (Science Advances, 2025).
“And” between values parts separate entries of the source, which are not always exact repeats. Equal values may be shown once.

Legend:
[1] = target: T1, LRRK2^RCKW (Homo sapiens, UniProt Q5S007); assay: Biochemical LRRK2 activity assay (PhosphoSense, AssayQuant SOX peptide AQT0615); conditions: for IC50: LRRK2^RCKW kinase activity, in vitro; for normalized response (LRRK2 activity): normalized to 0% (no kinase) and 100% (no inhibitor) control, two singlicate columns per compound
T1 construct: LRRK2 R1327 to E2527; His6-Z-tag (TEV cleavable) (N, cleaved yes); host or cells: Sf9 insect cells (baculovirus)
T1 sequence (Q5S007 1327-2527): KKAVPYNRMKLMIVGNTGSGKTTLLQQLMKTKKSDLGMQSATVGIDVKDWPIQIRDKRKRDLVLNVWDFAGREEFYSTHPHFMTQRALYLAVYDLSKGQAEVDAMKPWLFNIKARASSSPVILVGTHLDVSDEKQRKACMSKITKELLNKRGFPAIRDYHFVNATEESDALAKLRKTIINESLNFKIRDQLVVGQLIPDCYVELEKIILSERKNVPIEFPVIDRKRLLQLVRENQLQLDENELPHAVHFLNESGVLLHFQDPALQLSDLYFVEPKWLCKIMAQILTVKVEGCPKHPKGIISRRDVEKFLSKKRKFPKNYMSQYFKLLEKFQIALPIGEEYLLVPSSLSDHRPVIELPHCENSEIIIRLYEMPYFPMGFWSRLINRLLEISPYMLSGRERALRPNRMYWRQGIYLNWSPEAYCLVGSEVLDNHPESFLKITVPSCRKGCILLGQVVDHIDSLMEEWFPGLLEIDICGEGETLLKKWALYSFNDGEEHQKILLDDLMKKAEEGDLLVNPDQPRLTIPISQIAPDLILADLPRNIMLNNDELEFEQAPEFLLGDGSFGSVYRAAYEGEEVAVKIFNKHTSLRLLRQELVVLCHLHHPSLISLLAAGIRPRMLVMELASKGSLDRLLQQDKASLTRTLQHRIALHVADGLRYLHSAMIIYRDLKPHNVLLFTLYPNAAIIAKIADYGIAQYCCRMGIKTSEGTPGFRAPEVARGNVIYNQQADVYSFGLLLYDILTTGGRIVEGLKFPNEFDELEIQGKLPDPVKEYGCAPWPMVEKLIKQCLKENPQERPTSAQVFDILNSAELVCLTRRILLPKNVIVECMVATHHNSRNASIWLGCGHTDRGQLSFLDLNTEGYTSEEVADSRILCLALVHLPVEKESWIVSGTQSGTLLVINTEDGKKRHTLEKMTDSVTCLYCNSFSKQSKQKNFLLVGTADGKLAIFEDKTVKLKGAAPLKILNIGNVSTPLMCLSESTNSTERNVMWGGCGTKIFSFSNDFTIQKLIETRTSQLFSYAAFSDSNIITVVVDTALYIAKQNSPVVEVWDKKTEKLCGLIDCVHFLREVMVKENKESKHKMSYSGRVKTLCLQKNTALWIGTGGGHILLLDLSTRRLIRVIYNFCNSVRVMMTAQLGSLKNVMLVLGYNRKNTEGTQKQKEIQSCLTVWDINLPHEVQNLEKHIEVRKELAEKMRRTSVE
In short: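 Controls lacked protein and compound (0%) or compound only (100%). IC50 derived by nonlinear regression of normalized response versus log[inhibitor].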

[2] = target: T2, ~100 representative kinases (Homo sapiens, UniProt Q9Y6E0); assay: DSF 100 kinase selectivity screen; assay type: binding; conditions: protein MST3; average of three replicates;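 further: compound tested at 20 µM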
T2 construct: Recombinant protein kinase domains with a concentration of 2 μM
T2 sequence (Q9Y6E0 whole entry, the tested form may be a part): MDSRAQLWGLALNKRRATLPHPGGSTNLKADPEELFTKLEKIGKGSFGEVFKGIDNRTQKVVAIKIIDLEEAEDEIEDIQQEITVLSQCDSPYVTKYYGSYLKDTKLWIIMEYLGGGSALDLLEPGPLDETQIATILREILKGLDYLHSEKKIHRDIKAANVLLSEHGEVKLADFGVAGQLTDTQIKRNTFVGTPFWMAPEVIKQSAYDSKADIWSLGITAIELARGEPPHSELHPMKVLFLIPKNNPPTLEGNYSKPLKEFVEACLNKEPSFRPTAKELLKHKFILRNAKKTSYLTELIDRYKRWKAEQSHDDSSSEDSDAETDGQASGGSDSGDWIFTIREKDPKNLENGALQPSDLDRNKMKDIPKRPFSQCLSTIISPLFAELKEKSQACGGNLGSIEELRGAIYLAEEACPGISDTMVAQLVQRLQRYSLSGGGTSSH
Protocol: (§1) Recombinant protein kinase domains with a concentration of 2 μM were mixed with a 20 μM compound solution in dimethyl sulfoxide (DMSO), 20 mM Hepes (pH 7.5), and 500 mM NaCl. SYPRO Orange (5000×, Invitrogen) was added as a fluorescence probe (1μl/ml). Subsequently, temperature-dependent protein unfolding profiles were measured using the QuantStudio 5 realtime PCR machine (Thermo Fisher Scientific, Waltham, MA, USA). […] The temperature was raised with a step rate of 3°C/min. […] Differences in melting temperature are given as ΔTm values in degrees Celsius. […]

[3] = target: T3, ~100 representative kinases (Homo sapiens, UniProt O15264); assay: DSF 100 kinase selectivity screen; assay type: binding; conditions: protein MAPK13; average of three replicates;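 further: compound tested at 20 µM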
T3 construct: Recombinant protein kinase domains with a concentration of 2 μM
T3 sequence (O15264 1-365): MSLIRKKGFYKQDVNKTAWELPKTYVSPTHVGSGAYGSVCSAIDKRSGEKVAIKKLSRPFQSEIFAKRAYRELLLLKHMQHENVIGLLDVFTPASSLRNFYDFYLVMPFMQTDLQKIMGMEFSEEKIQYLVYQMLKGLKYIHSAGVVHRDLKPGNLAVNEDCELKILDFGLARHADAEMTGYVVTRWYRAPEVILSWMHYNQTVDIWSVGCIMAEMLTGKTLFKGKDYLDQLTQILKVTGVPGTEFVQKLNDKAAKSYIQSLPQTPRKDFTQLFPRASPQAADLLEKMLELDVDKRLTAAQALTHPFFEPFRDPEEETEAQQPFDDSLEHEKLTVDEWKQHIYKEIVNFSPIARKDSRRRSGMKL
Protocol: as §1

[4] = target: T4, ~100 representative kinases (Homo sapiens, UniProt Q13627); assay: DSF 100 kinase selectivity screen; assay type: binding; conditions: Protein DYRK1A; average of three replicates;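 further: compound tested at 20 µM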
T4 construct: Recombinant protein kinase domains with a concentration of 2 μM
Protocol: as §1

[5] = target: T5, ~100 representative kinases (Homo sapiens, UniProt O94804); assay: DSF 100 kinase selectivity screen; assay type: binding; conditions: Protein STK10; DSF; average of three replicates;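 further: compound tested at 20 µM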
T5 construct: Recombinant protein kinase domains with a concentration of 2 μM
T5 sequence (O94804 whole entry, the tested form may be a part): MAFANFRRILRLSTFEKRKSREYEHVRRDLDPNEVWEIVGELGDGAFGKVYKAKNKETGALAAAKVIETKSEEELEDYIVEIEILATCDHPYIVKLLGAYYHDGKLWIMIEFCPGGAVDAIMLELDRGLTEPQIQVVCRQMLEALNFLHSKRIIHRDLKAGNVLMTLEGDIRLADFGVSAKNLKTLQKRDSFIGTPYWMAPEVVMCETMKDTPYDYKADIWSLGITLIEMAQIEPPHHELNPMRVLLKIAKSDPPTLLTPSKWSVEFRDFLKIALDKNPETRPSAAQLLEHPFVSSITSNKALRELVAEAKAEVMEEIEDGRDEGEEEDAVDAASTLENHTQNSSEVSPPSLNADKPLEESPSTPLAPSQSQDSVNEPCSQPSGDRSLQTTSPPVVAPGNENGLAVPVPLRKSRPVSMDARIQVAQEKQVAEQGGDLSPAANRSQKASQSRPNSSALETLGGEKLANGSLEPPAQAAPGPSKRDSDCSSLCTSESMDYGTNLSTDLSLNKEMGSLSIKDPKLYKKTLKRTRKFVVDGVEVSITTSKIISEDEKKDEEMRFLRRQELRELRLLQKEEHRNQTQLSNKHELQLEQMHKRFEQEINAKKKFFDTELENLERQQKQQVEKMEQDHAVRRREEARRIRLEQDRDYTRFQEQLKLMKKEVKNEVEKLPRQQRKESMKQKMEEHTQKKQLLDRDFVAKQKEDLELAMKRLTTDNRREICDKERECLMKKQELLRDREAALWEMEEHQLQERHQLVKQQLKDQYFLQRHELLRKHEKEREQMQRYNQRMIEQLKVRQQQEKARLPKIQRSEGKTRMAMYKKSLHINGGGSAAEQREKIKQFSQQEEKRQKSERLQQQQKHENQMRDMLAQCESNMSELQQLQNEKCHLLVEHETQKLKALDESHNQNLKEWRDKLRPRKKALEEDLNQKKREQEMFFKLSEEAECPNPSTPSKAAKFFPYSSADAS
Protocol: as §1

Structure (SMILES): Cc1ccc(C(=O)Nc2ccc(CN3CCN(C)CC3)c(C(F)(F)F)c2)cc1C#Cc1c[nH]c2ncnc(N3CCOCC3)c12 [Compound 1]
- IC50 [1]: 756 ± 20 nM
- normalized response (LRRK2 activity) ([1]; log[inhibitor(mol)] -5.12494): 7.718% and 4.844%
- normalized response (LRRK2 activity) ([1]; log[inhibitor(mol)] -5.60206): 24.5327% and 23.4304%
- normalized response (LRRK2 activity) ([1]; log[inhibitor(mol)] -6.30103): 59.5875% and 59.3462%
- normalized response (LRRK2 activity) ([1]; log[inhibitor(mol)] -6.90309): 87.2332% and 86.1364%
- normalized response (LRRK2 activity) ([1]; log[inhibitor(mol)] -7.30103): 105.83% and 97.719%
- normalized response (LRRK2 activity) ([1]; log[inhibitor(mol)] -7.60206): 93.8691% and 88.2314%
- normalized response (LRRK2 activity) ([1]; log[inhibitor(mol)] -8.09691): 93.7155% and 94.1323%
- normalized response (LRRK2 activity) ([1]; log[inhibitor(mol)] -8.61979): 97.5599% and 105.43%
- normalized response (LRRK2 activity) ([1]; log[inhibitor(mol)] -9.09691): 94.6588% and 101.816%
- normalized response (LRRK2 activity) ([1]; log[inhibitor(mol)] -9.39794): 98.0974% and 115.57%
- dTm [2]: 3.57 K
- dTm [3]: 4.74 K
- dTm [4]: -1.40 K
- dTm [5]: 14.26 K

Structure (SMILES): O=C(Nc1ccc(F)cc1)C1(C(=O)Nc2cccc(-c3c[nH]c4ncnc(N5CCOCC5)c34)c2)CC1 [Compound 2]
- IC50 [1]: 185 ± 10 nM
- normalized response (LRRK2 activity) ([1]; log[inhibitor(mol)] -4.82391): -3.585% and -13.2094%
- normalized response (LRRK2 activity) ([1]; log[inhibitor(mol)] -5.12494): -9.6118% and -10.6428%
- normalized response (LRRK2 activity) ([1]; log[inhibitor(mol)] -5.60206): -5.033% and -3.426%
- normalized response (LRRK2 activity) ([1]; log[inhibitor(mol)] -6.30103): 19.2953% and 18.2204%
- normalized response (LRRK2 activity) ([1]; log[inhibitor(mol)] -6.90309): 61.3205% and 61.6605%
- normalized response (LRRK2 activity) ([1]; log[inhibitor(mol)] -7.30103): 88.0559% and 79.7364%
- normalized response (LRRK2 activity) ([1]; log[inhibitor(mol)] -7.60206): 100.582% and 98.3497%
- normalized response (LRRK2 activity) ([1]; log[inhibitor(mol)] -8.09691): 94.604% and 97.0225%
- normalized response (LRRK2 activity) ([1]; log[inhibitor(mol)] -8.61979): 106.516% and 96.1066%
- normalized response (LRRK2 activity) ([1]; log[inhibitor(mol)] -9.09691): 107.272% and 96.9347%
- normalized response (LRRK2 activity) ([1]; log[inhibitor(mol)] -9.39794): 103.198% and 102.243%
- dTm [2]: 7.19 K
- dTm [3]: 9.94 K
- dTm [4]: 4.73 K
- dTm [5]: 12.98 K

Structure (SMILES): CCNc1nc(Nc2cc(F)c(C(=O)N3CCOCC3)cc2OC)ncc1C(F)(F)F [GNE-7915]
- dTm [2]: 0.91 K
- dTm [3]: 0.51 K
- dTm [4]: -0.0472 K
- dTm [5]: -0.11 K

Structure (SMILES): Cc1ccc(C(=O)Nc2ccc(CN3CCN(C)CC3)c(C(F)(F)F)c2)cc1C#Cc1cnc2[nH]ncc2c1 [GZD-824, reference compound]
- normalized response (LRRK2 activity) ([1]; log[inhibitor(mol)] -4.82391): 37.9506% and 22.443%
- normalized response (LRRK2 activity) ([1]; log[inhibitor(mol)] -5.12494): 2.902% and -0.761%
- normalized response (LRRK2 activity) ([1]; log[inhibitor(mol)] -6.30103): -12.6856% and -11.6517%
- normalized response (LRRK2 activity) ([1]; log[inhibitor(mol)] -6.90309): -14.8328% and -12.1996%
- normalized response (LRRK2 activity) ([1]; log[inhibitor(mol)] -7.30103): -10.7195% and -10.9051%
- normalized response (LRRK2 activity) ([1]; log[inhibitor(mol)] -7.60206): -2.449% and -0.1425%
- normalized response (LRRK2 activity) ([1]; log[inhibitor(mol)] -8.09691): 77.0511% and 75.7389%
- normalized response (LRRK2 activity) ([1]; log[inhibitor(mol)] -8.61979): 100.887% and 96.9327%
- normalized response (LRRK2 activity) ([1]; log[inhibitor(mol)] -9.09691): 102.124% and 93.9328%
- normalized response (LRRK2 activity) ([1]; log[inhibitor(mol)] -9.39794): 100.847% and 103.781%
- dTm [2]: 10.01 K
- dTm [3]: 6.08 K
- dTm [4]: -2.15 K

Structure (SMILES): C[C@@H]1CN(c2cc(-c3n[nH]c4ccc(OC5(C)CC5)cc34)ncn2)C[C@H](C)O1 [MLi2]
- dTm [2]: 0.43 K
- dTm [3]: 0.32 K
- dTm [4]: 0.53 K
- dTm [5]: -0.79 K

Structure (SMILES): Cn1cc(-c2c[nH]c3ncnc(N4CCOCC4)c23)cc1C#N [PFE-360]
- dTm [2]: 2.72 K
- dTm [3]: 0.70 K
- dTm [4]: 3.25 K
- dTm [5]: 7.58 K

Structure (SMILES): Cc1ccc(C(=O)Nc2ccc(CN3CCN(C)CC3)c(C(F)(F)F)c2)cc1C#Cc1cnc2cccnn12 [Ponatinib, reference compound]
- normalized response (LRRK2 activity) ([1]; log[inhibitor(mol)] -6.30103): 56.5539% and 57.6737%
- normalized response (LRRK2 activity) ([1]; log[inhibitor(mol)] -6.90309): 39.5492% and 29.1129%
- normalized response (LRRK2 activity) ([1]; log[inhibitor(mol)] -7.30103): 59.9414% and 56.1669%
- normalized response (LRRK2 activity) ([1]; log[inhibitor(mol)] -7.60206): 77.794% and 52.662%
- normalized response (LRRK2 activity) ([1]; log[inhibitor(mol)] -8.09691): 99.8669% and 100.13%
- normalized response (LRRK2 activity) ([1]; log[inhibitor(mol)] -8.61979): 102.911%
- normalized response (LRRK2 activity) ([1]; log[inhibitor(mol)] -9.09691): 103.335% and 101.393%
- normalized response (LRRK2 activity) ([1]; log[inhibitor(mol)] -9.39794): 103.789% and 105.568%

Structure (SMILES): CNC(=O)c1cc(Oc2ccc(NC(=O)Nc3cc(C(C)(C)C)nn3-c3ccc4ncccc4c3)c(F)c2)ccn1 [Rebastinib, reference compound]
- normalized response (LRRK2 activity) ([1]; log[inhibitor(mol)] -5.12494): -10.5496% and -14.6792%
- normalized response (LRRK2 activity) ([1]; log[inhibitor(mol)] -5.60206): -7.259% and -5.877%
- normalized response (LRRK2 activity) ([1]; log[inhibitor(mol)] -6.30103): 2.212% and 3.3144%
- normalized response (LRRK2 activity) ([1]; log[inhibitor(mol)] -6.90309): 28.2838% and 28.5032%
- normalized response (LRRK2 activity) ([1]; log[inhibitor(mol)] -7.30103): 54.9753% and 51.2954%
- normalized response (LRRK2 activity) ([1]; log[inhibitor(mol)] -7.60206): 71.3236% and 68.1209%
- normalized response (LRRK2 activity) ([1]; log[inhibitor(mol)] -8.09691): 89.2569% and 91.5273%
- normalized response (LRRK2 activity) ([1]; log[inhibitor(mol)] -8.61979): 98.1961% and 113.387%
- normalized response (LRRK2 activity) ([1]; log[inhibitor(mol)] -9.09691): 109.62% and 109.044%
- normalized response (LRRK2 activity) ([1]; log[inhibitor(mol)] -9.39794): 108.15% and 116.184%
- dTm [3]: 13.29 K
- dTm [4]: 0.55 K
- dTm [5]: 16.27 K

Structure (SMILES): CN[C@@H]1C[C@H]2O[C@@](C)([C@@H]1OC)n1c3ccccc3c3c4c(c5c6ccccc6n2c5c31)C(=O)NC4 [Staurosporine]
- dTm [3]: 8.03 K
- dTm [5]: 22.21 K
